Experimental data: ChEMBL document CHEMBL3885881, “DrugMatrix”

Species: Rattus norvegicus
Experiment: DrugMatrix - Regimen: Daily Repeat
Assay type: toxicity, organism-based, Sprague-Dawley
Set-up: regimen Daily Repeat, gender Male, age 6-8 weeks
Settings: in vivo, po, route oral GAVAGE, […]; for ABSOLUTE BASOPHIL / ABSOLUTE EOSINOPHIL / ABSOLUTE LYMPHOCYTE / ABSOLUTE MONOCYTE / ABSOLUTE SEGMENTED NEUTROPHIL / BASOPHIL / EOSINOPHIL / ERYTHROCYTE COUNT / HEMATOCRIT / HEMOGLOBIN / LEUKOCYTE COUNT / LYMPHOCYTE / MEAN CORPUSCULAR HEMOGLOBIN / MEAN CORPUSCULAR HEMOGLOBIN CONCENTRATION / MEAN CORPUSCULAR VOLUME / MONOCYTE / NEUTROPHIL / NUCLEATED RED BLOOD CELLS / PLATELET COUNT: tissue Blood; for ALANINE AMINOTRANSFERASE / ALBUMIN / ALKALINE PHOSPHATASE / ASPARTATE AMINOTRANSFERASE / BLOOD UREA NITROGEN / CARBON DIOXIDE / CHLORIDE / CHOLESTEROL / CREATINE PHOSPHOKINASE / CREATININE / GLUCOSE / LACTATE DEHYDROGENASE / LIPASE / PHOSPHORUS / POTASSIUM / SODIUM / TOTAL BILIRUBIN / TOTAL PROTEIN / URIC ACID: tissue Plasma
[1] = 29 mg/kg, 120 h, dose level Low, time 5 day
[2] = 450 mg/kg, 72 h, dose level High, time 3 day
[3] = 450 mg/kg, 120 h, dose level High, time 5 day

C[C@@H]1CN(c2c(F)c(N)c3c(=O)c(C(=O)O)cn(C4CC4)c3c2F)C[C@H](C)N1 [SPARFLOXACIN]
ABSOLUTE BASOPHIL [1]: 0 CELLS/uL
ABSOLUTE EOSINOPHIL [1]: 69.33 CELLS/uL
ABSOLUTE LYMPHOCYTE [1]: 8350.33 CELLS/uL
ABSOLUTE MONOCYTE [1]: 91.33 CELLS/uL
ABSOLUTE SEGMENTED NEUTROPHIL [1]: 455.67 CELLS/uL
BASOPHIL [1]: 0%
EOSINOPHIL [1]: 0.67%
ERYTHROCYTE COUNT [1]: 5.79 x10E6/uL
HEMATOCRIT [1]: 35.13%
HEMOGLOBIN [1]: 13.97 G/DL
LEUKOCYTE COUNT [1]: 8.97 x10E3/uL
LYMPHOCYTE [1]: 93%
MEAN CORPUSCULAR HEMOGLOBIN [1]: 24.13 pg
MEAN CORPUSCULAR HEMOGLOBIN CONCENTRATION [1]: 39.73 G/DL
MEAN CORPUSCULAR VOLUME [1]: 60.73 fL
MONOCYTE [1]: 1%
NEUTROPHIL [1]: 5.33%
NUCLEATED RED BLOOD CELLS [1]: 0 /100WBC
PLATELET COUNT [1]: 1048 x10E3/uL
ALANINE AMINOTRANSFERASE [1]: 62 u/L
ALBUMIN [1]: 4.03 G/DL
ALKALINE PHOSPHATASE [1]: 251.67 u/L
ASPARTATE AMINOTRANSFERASE [1]: 82 u/L
BLOOD UREA NITROGEN [1]: 13.33 mg/dL
CARBON DIOXIDE [1]: 33 mmol/L
CHLORIDE [1]: 98.33 MEQ/L
CHOLESTEROL [1]: 65.67 mg/dL
CREATINE PHOSPHOKINASE [1]: 381.67 u/L
CREATININE [1]: 0.18 mg/dL
GLUCOSE [1]: 147.33 mg/dL
LACTATE DEHYDROGENASE [1]: 161.33 u/L
LIPASE [1]: 12 u/L
PHOSPHORUS [1]: 10.9 mg/dL
POTASSIUM [1]: 6.43 MEQ/L
SODIUM [1]: 144.2 MEQ/L
TOTAL BILIRUBIN [1]: 0.13 mg/dL
TOTAL PROTEIN [1]: 6 G/DL
URIC ACID [1]: 0.77 mg/dL
ABSOLUTE BASOPHIL [2]: 0 CELLS/uL
ABSOLUTE EOSINOPHIL [2]: 0 CELLS/uL
ABSOLUTE LYMPHOCYTE [2]: 14211.67 CELLS/uL
ABSOLUTE MONOCYTE [2]: 0 CELLS/uL
ABSOLUTE SEGMENTED NEUTROPHIL [2]: 1355 CELLS/uL
BASOPHIL [2]: 0%
EOSINOPHIL [2]: 0%
ERYTHROCYTE COUNT [2]: 5.74 x10E6/uL
HEMATOCRIT [2]: 34.87%
HEMOGLOBIN [2]: 13.93 G/DL
LEUKOCYTE COUNT [2]: 15.57 x10E3/uL
LYMPHOCYTE [2]: 91.33%
MEAN CORPUSCULAR HEMOGLOBIN [2]: 24.3 pg
MEAN CORPUSCULAR HEMOGLOBIN CONCENTRATION [2]: 40 G/DL
MEAN CORPUSCULAR VOLUME [2]: 60.77 fL
MONOCYTE [2]: 0%
NEUTROPHIL [2]: 8.67%
NUCLEATED RED BLOOD CELLS [2]: 0 /100WBC
PLATELET COUNT [2]: 1148.33 x10E3/uL
ALANINE AMINOTRANSFERASE [2]: 55.33 u/L
ALBUMIN [2]: 3.93 G/DL
ALKALINE PHOSPHATASE [2]: 277.33 u/L
ASPARTATE AMINOTRANSFERASE [2]: 69.33 u/L
BLOOD UREA NITROGEN [2]: 12 mg/dL
CARBON DIOXIDE [2]: 31.67 mmol/L
CHLORIDE [2]: 101 MEQ/L
CHOLESTEROL [2]: 72.33 mg/dL
CREATINE PHOSPHOKINASE [2]: 173 u/L
CREATININE [2]: 0.21 mg/dL
GLUCOSE [2]: 159.67 mg/dL
LACTATE DEHYDROGENASE [2]: 146 u/L
LIPASE [2]: 10.67 u/L
PHOSPHORUS [2]: 10.6 mg/dL
POTASSIUM [2]: 6.2 MEQ/L
SODIUM [2]: 143.4 MEQ/L
TOTAL BILIRUBIN [2]: 0.17 mg/dL
TOTAL PROTEIN [2]: 5.73 G/DL
URIC ACID [2]: 1.3 mg/dL
ABSOLUTE BASOPHIL [3]: 0 CELLS/uL
ABSOLUTE EOSINOPHIL [3]: 0 CELLS/uL
ABSOLUTE LYMPHOCYTE [3]: 8740 CELLS/uL
ABSOLUTE MONOCYTE [3]: 96.67 CELLS/uL
ABSOLUTE SEGMENTED NEUTROPHIL [3]: 396.67 CELLS/uL
BASOPHIL [3]: 0%
EOSINOPHIL [3]: 0%
ERYTHROCYTE COUNT [3]: 5.14 x10E6/uL
HEMATOCRIT [3]: 33.83%
HEMOGLOBIN [3]: 13.17 G/DL
LEUKOCYTE COUNT [3]: 9.23 x10E3/uL
LYMPHOCYTE [3]: 94.67%
MEAN CORPUSCULAR HEMOGLOBIN [3]: 25.83 pg
MEAN CORPUSCULAR HEMOGLOBIN CONCENTRATION [3]: 38.93 G/DL
MEAN CORPUSCULAR VOLUME [3]: 66.27 fL
MONOCYTE [3]: 1%
NEUTROPHIL [3]: 4.33%
NUCLEATED RED BLOOD CELLS [3]: 0 /100WBC
PLATELET COUNT [3]: 1047.33 x10E3/uL
ALANINE AMINOTRANSFERASE [3]: 67.33 u/L
ALBUMIN [3]: 4.03 G/DL
ALKALINE PHOSPHATASE [3]: 374 u/L
ASPARTATE AMINOTRANSFERASE [3]: 88.67 u/L
BLOOD UREA NITROGEN [3]: 11 mg/dL
CARBON DIOXIDE [3]: 30 mmol/L
CHLORIDE [3]: 97.67 MEQ/L
CHOLESTEROL [3]: 86 mg/dL
CREATINE PHOSPHOKINASE [3]: 412.67 u/L
CREATININE [3]: 0.19 mg/dL
GLUCOSE [3]: 177.67 mg/dL
LACTATE DEHYDROGENASE [3]: 159.67 u/L
LIPASE [3]: 10.33 u/L
PHOSPHORUS [3]: 12.17 mg/dL
POTASSIUM [3]: 5.6 MEQ/L
SODIUM [3]: 141 MEQ/L
TOTAL BILIRUBIN [3]: 0.1 mg/dL
TOTAL PROTEIN [3]: 5.93 G/DL
URIC ACID [3]: 1 mg/dL
